Measured values taken from patent US20060193781A1, “Magnetic resonance imaging of metal concentrations” (priority 2002, published 2006).
Where two headings read alike, the source gives them in different places.

Assays:
[1] = Fluorine nuclear relaxation times T1 and T2 and chemical shift of 5F-BAPTA with and without zinc, in water and octanol; format: physicochemical
Experimental: All fluorine NMR spectra were collected with a 400 MHz Oxford/Varian Unity Plus spectrometer at 25° C. The nominal 90° pulse width was 7.8 μsec.
An equivalent volume (0.7 ml) n-octanol was added, and the mixture was shaken vigorously. The organic and aqueous phases were separated by pipette and placed in NMR tubes. To the octanol solution was added 0.1 ml deuterated methanol to provide an NMR lock signal.

[2] = for T2 bound / T2 free: 2 mM complexing agent, 400 MHz, 25° C.
Experimental: All fluorine NMR spectra were collected with a 400 MHz Oxford/Varian Unity Plus spectrometer at 25° C. The nominal 90° pulse width was 7.8 μsec. Transverse relaxation times were determined by the best fit of data collected using the Carr-Purcell-Meiboom-Gill sequence supplied with the spectrometer.
A 1 M solution of Ultra Pure ZnCl2 (Sigma) was prepared and diluted in a serial fashion to produce intermediate stock solutions of concentration 100 mM and 10 mM in water. A 200 mM solution of 5-T-BAPTA (Molecular Probes) was prepared and added to aliquots of either zinc solution, as appropriate, in sufficient quantity to yield a final, fixed concentration of 2 mM of the complexing agent.

[3] = aqueous solution of the zinc complex
[4] = aqueous solution without zinc, HEPES buffer, 400 MHz, 25° C.
[5] = Sample 2: ZnCl2 0.5 mM, MgCl2 1.5 mM

**Q.** Which “change of fluorine transverse relaxation time upon complexation with Zn^+2” value [1] does the source give for `O=C(O)CN(CC(=O)O)c1ccc(F)cc1OCCOc1cc(F)ccc1N(CC(=O)O)CC(=O)O` [5F-BAPTA, 1,2-bis-(2-amino-5-fluorophenoxy)ethane-N,N,N′,N′-tetraacetic acid] here?
**A.** Its value is “large reduction”.

**Q.** What about the T1 value [1, 3] of the same compound?
**A.** Its T1 value is 0.82 ± 0.01 s.

**Q.** What about the T2 value [1, 3] of the same compound?
**A.** Its T2 value is 0.0248±0.0003.

**Q.** What about the T1 value [1, 4] of the same compound?
**A.** Its T1 value is 0.82 ± 0.01 s.

**Q.** And the T2 value [1, 4]?
**A.** The T2 value was 0.080 ± 0.003 s.

**Q.** What about the T2 value ([1]; zinc complex in octanol) of the same compound?
**A.** The T2 value was 0.013 ± 0.001 s.

**Q.** What about the T1 value ([1]; zinc complex in octanol solution) of the same compound?
**A.** Its T1 value is 0.53 ± 0.01 s.

**Q.** With `O=C(O)CN(CC(=O)O)c1ccc(C(F)(F)F)cc1OCCOc1cc(C(F)(F)F)ccc1N(CC(=O)O)CC(=O)O` [5T-BAPTA, 1,2-bis-(2-amino-5-trifluoromethylphenoxy)ethane-N,N,N′,N′-tetra acetic acid] as the compound, how does the T2 bound ([2]; Sample 1: ZnCl2 2.0 mM, MgCl2 1.0 mM, CaCl2 2.0 mM) read?
**A.** The T2 bound was 0.14 ± 0.03 s.

**Q.** And the “T2 of the complex (Sample 1) relative to T2 of the free complexing agent (Sample 3)” value ([2]; Sample 1 vs Sample 3)?
**A.** Its value is “⅕”.

**Q.** What about the T2 bound [2, 5] of the same compound?
**A.** Its T2 bound is 0.265 ± 0.025 s.

**Q.** And the T2 free [2, 5]?
**A.** Its T2 free is 0.387 ± 0.012 s.

**Q.** What about the T2 free ([2]; Sample 3: ZnCl2 0 mM, MgCl2 1.65 mM, CaCl2 3.35 mM) of the same compound?
**A.** The T2 free was 0.763 ± 0.032 s.

**Q.** What about the T2 bound ([2]; Sample 4: ZnCl2 3.5 mM, MgCl2 0.5 mM, CaCl2 1.0 mM) of the same compound?
**A.** Its T2 bound is 0.216 ± 0.007 s.
